Reference: paper PMC4266796 (International Journal for Parasitology: Drugs and Drug …, 2014)
“Also recorded” adds a separate entry of the source. Structures can show the parent of a compound that is named as a salt. Where two headings read alike, the source gives them in different places.

Legend:
in vitro = conditions: Aedes albopictus
L. sigmodontis = assay: In vivo L. sigmodontis screening assay, worm length; design: species or system Litomosoides sigmodontis in BALB/c mice
Wolbachia = conditions: ref Hermans et al., 2001; cited from earlier work
[1] = system: W. pipientis wAlbB in C6/36 (wAlbB) cells; assay: microbe, parasite or virus in culture; assay type: cell-based, Wolbachia pipientis; conditions: for Dose response behaviour in titration series: 6 doses from 10 to 0.3 μM; for log reduction at 10 µM: Wolbachia pipientis, C6/36, 216 h, read-out: 16S log drop, 10 μM, 9 days, single agent screening
[2] = system: Wolbachia of L. sigmodontis; assay: animal or person; assay type: in vivo, Wolbachia of Litomosoides sigmodontis in BALB/c mice; conditions: for log reduction at 25 mg/kg/day: ip, 240 h, read-out: wLs ftsz log drop in vivo
C6/36 (wAlbB) cells = conditions: 10 μM, luminescence vs vehicle-treated control
O gutturosa Wolbachia = assay type: cell-based, Wolbachia of Onchocerca gutturosa; conditions: for Reduction in Wolbachia (wsp:gst log drop from vehicle controls): 5 days; for Effect on Wolbachia load (in words): 12.5 to 0.195 μM
[3] = reduced regimen, 25 MKD for 10 days

## Nc1nc(NC2CC2)c2ncn([C@H]3C=C[C@@H](CO)C3)c2n1 [Abacavir Sulfate]
In vitro
  cytotoxicity at 10 µM: 0%

## O=C(O)c1cn(C2CC2)c2cc(N3CCNCC3)c(F)cc2c1=O [Ciprofloxacin hydrochloride]
L. sigmodontis; standard doses tested
  Effect on worm length (in words): did not reduce
Wolbachia
  Activity in other cell-based Wolbachia assays: no activity
In vitro
  cytotoxicity at 10 µM: 0%

## COc1cc(/C=C/C(=O)CC(=O)/C=C/c2ccc(O)c(OC)c2)ccc1O [Curcumin]
[1]
  Dose response behaviour in titration series: activity only at the highest concentration
In vitro
  cytotoxicity at 10 µM: 0%

## CC(=O)Oc1cccc2c1C(=O)c1c(OC(C)=O)cc(C(=O)O)cc1C2=O [Diacerein]
In vitro
  cytotoxicity at 10 µM: 0%

## CCCCC(CC)COC(=O)CC(C(=O)OCC(CC)CCCC)S(=O)(=O)[O-].CCCCC(CC)COC(=O)CC(C(=O)OCC(CC)CCCC)S(=O)(=O)[O-].[Ca+2] (centres unmarked) [Docusate Calcium]
L. sigmodontis; 200 MKD IP for 14 days
  Ls length reduction in vivo (%): 20.0%
[2]; 200 MKD IP for 14 days
  wLs ftsz log drop in vivo: 1.0 log
C6/36 (wAlbB) cells
  Cytotoxicity (%): 0%

## C[C@H]1c2cccc(O)c2C(=O)C2=C(O)[C@]3(O)C(=O)C(C(N)=O)=C(O)[C@@H](N(C)C)[C@@H]3[C@@H](O)[C@@H]21 [Doxycycline]
[1]; doxycycline gold standard, 7 μM, 9 days
  16S log drop in vitro: 1.6 log
O gutturosa Wolbachia; 0.195 μM
  Reduction in Wolbachia (wsp:gst log drop from vehicle controls): 0.77 log
O gutturosa Wolbachia; 0.781 μM
  Reduction in Wolbachia (wsp:gst log drop from vehicle controls): 0.14 log
O gutturosa Wolbachia; 3.125 μM
  Reduction in Wolbachia (wsp:gst log drop from vehicle controls): 0.21 log
O gutturosa Wolbachia; 12.5 μM
  Reduction in Wolbachia (wsp:gst log drop from vehicle controls): 0.80 log
O gutturosa Wolbachia
  Effect on Wolbachia load (in words): reduced the Wolbachia load
[2]
  log reduction at 25 mg/kg/day: 2.2
In vitro
  cytotoxicity at 7 µM: 0%

## CCC1(C)CC(=O)NC1=O (centres unmarked) [Ethosuximide]
[1]
  log reduction at 10 µM: ≥ 1.6

## CCOc1ccc2nc(S(N)(=O)=O)sc2c1 [Ethoxzolamide]
In vitro
  cytotoxicity at 10 µM: 19%

## COc1ccc2c(c1)c(CC(=O)O)c(C)n2C(=O)c1ccc(Cl)cc1 [Indomethacin]
[1]
  log reduction at 10 µM: ≥ 1.6
In vitro
  cytotoxicity at 10 µM: 0%

## NNC(=O)c1ccncc1 [Isoniazid]
In vitro
  cytotoxicity at 10 µM: 0.3%

## CO[C@@H]1[C@@H](O[C@@H]2O[C@H](C)[C@@H](O[C@H]3C[C@@](C)(O)[C@@H](OC(=O)CC(C)C)[C@H](C)O3)[C@H](N(C)C)[C@H]2O)[C@@H](CC=O)C[C@@H](C)[C@@H](O)/C=C/C=C/C[C@@H](C)OC(=O)C[C@H]1O [Kitasamycin]
[1]
  log reduction at 10 µM: ≥ 1.6

## CCOC(=O)N1CCC(=C2c3ccc(Cl)cc3CCc3cccnc32)CC1 [Loratadine]
L. sigmodontis; standard doses tested
  Effect on worm length (in words): no effect
In vitro
  cytotoxicity at 10 µM: 20.7%

## C=C1c2cccc(O)c2C(=O)C2=C(O)[C@]3(O)C(=O)C(C(N)=O)=C(O)[C@@H](N(C)C)[C@@H]3[C@@H](O)[C@H]12 [Methacycline hydrochloride]
[1]
  Dose response behaviour in titration series: active at all tested concentrations to the same extent
  log reduction at 10 µM: ≥ 1.6
In vitro
  cytotoxicity at 10 µM: 0%

## CN(C)c1ccc(O)c2c1C[C@H]1C[C@H]3[C@H](N(C)C)C(O)=C(C(N)=O)C(=O)[C@@]3(O)C(O)=C1C2=O [Minocycline]
[1]
  log reduction at 10 µM: ≥ 1.6
L. sigmodontis; standard doses tested
  Effect on worm length (in words): significantly reduced
[2]
  log reduction at 25 mg/kg/day: 3.78
[2]; methacycline 50 MKD, minocycline 25 MKD for 10 days, P < 0.05
  Reduction in Wolbachia load compared with the same dose/regimen of doxycycline: significantly greater
[2]; mouse, in vivo
  Activity in the L. sigmodontis mouse model (in words): demonstrated activity
[2]; [3]
  Effect on Wolbachia load (in words): significantly reduced
[2]; standard doses tested
  Effect on Wolbachia load (in words): significantly reduced
In vitro
  cytotoxicity at 10 µM: 0%

## COc1c(N2C[C@@H]3CCCN[C@@H]3C2)c(F)cc2c(=O)c(C(=O)O)cn(C3CC3)c12 [Moxifloxacin]
O gutturosa Wolbachia
  Effect on Wolbachia load (in words): greatly reduced the Wolbachia load at all concentrations tested
[2]; levofloxacin and moxifloxacin: data not shown / unpublished observations
  Activity in the L. sigmodontis mouse model (in words): active

## CC1(C)NC(=O)N(c2ccc([N+](=O)[O-])c(C(F)(F)F)c2)C1=O [Nilutamide]
In vitro
  cytotoxicity at 10 µM: 0.01%

## NC[C@@H]1O[C@H](O[C@H]2[C@@H](O)[C@H](O[C@@H]3[C@@H](O)[C@H](N)C[C@H](N)[C@H]3O[C@H]3O[C@H](CO)[C@@H](O)[C@H](O)[C@H]3N)O[C@@H]2CO)[C@H](N)[C@@H](O)[C@@H]1O [Paromomycin sulfate]
[1]
  Dose response behaviour in titration series: showed a dose response
  log reduction at 10 µM: ≥ 1.6
In vitro
  cytotoxicity at 10 µM: 0%

## CO[C@H]1/C=C/O[C@@]2(C)Oc3c(C)c(O)c4c(O)c(c(/C=N/N5CCN(C6CCCC6)CC5)c(O)c4c3C2=O)NC(=O)/C(C)=C\C=C\[C@H](C)[C@H](O)[C@@H](C)[C@@H](O)[C@@H](C)[C@H](OC(C)=O)[C@@H]1C [Rifapentine]
[1]
  log reduction at 10 µM: ≥ 1.6
O gutturosa Wolbachia; 0.195 μM
  Reduction in Wolbachia (wsp:gst log drop from vehicle controls): 0.99 log
O gutturosa Wolbachia; 0.781 μM
  Reduction in Wolbachia (wsp:gst log drop from vehicle controls): 0.78 log
O gutturosa Wolbachia; 3.125 μM
  Reduction in Wolbachia (wsp:gst log drop from vehicle controls): 0.77 log
O gutturosa Wolbachia; 12.5 μM
  Reduction in Wolbachia (wsp:gst log drop from vehicle controls): 1.04 log
O gutturosa Wolbachia
  Effect on Wolbachia load (in words): greatly reduced the Wolbachia load at all concentrations tested
L. sigmodontis; standard doses tested
  Effect on worm length (in words): significantly reduced
[2]; mouse, in vivo
  Activity in the L. sigmodontis mouse model (in words): demonstrated activity
[2]; standard doses tested
  Effect on Wolbachia load (in words): significantly reduced
In vitro
  cytotoxicity at 10 µM: 20%

## C[C@@H]1CN(c2c(F)c(N)c3c(=O)c(C(=O)O)cn(C4CC4)c3c2F)C[C@H](C)N1 [Sparfloxacin]
L. sigmodontis; [3]
  Effect on worm length (in words): did not significantly affect
L. sigmodontis; standard doses tested
  Effect on worm length (in words): significantly reduced
[2]
  log reduction at 25 mg/kg/day: 0.6
[2]; mouse, in vivo
  Activity in the L. sigmodontis mouse model (in words): demonstrated activity; also recorded: active
[2]; [3]
  Effect on Wolbachia load (in words): did not significantly affect
[2]; standard doses tested
  Effect on Wolbachia load (in words): significantly reduced
In vitro
  cytotoxicity at 10 µM: 0%

## [H]/N=C(/N)NS(=O)(=O)c1ccc(N)cc1 [Sulfaguanidine]
[1]
  Dose response behaviour in titration series: active at all tested concentrations to the same extent

## C[C@H]1COc2c(N3CCN(C)CC3)c(F)cc3c(=O)c(C(=O)O)cn1c23 [levofloxacin]
[2]; mouse, in vivo
  Activity in the L. sigmodontis mouse model (in words): inactive
